ChEMBL document CHEMBL1152369, “Unsymmetrical non-adamantyl N,N'-diaryl urea and amide inhibitors of soluble expoxide hydrolase” (Bioorg Med Chem Lett, 2009)

What was measured:
[1] = biological target: T1, Bifunctional epoxide hydrolase 2 (Homo sapiens, UniProt P34913); test: Inhibition of human soluble epoxide hydrolase by fluorescent endpoint assay
T1 sequence (P34913 whole entry): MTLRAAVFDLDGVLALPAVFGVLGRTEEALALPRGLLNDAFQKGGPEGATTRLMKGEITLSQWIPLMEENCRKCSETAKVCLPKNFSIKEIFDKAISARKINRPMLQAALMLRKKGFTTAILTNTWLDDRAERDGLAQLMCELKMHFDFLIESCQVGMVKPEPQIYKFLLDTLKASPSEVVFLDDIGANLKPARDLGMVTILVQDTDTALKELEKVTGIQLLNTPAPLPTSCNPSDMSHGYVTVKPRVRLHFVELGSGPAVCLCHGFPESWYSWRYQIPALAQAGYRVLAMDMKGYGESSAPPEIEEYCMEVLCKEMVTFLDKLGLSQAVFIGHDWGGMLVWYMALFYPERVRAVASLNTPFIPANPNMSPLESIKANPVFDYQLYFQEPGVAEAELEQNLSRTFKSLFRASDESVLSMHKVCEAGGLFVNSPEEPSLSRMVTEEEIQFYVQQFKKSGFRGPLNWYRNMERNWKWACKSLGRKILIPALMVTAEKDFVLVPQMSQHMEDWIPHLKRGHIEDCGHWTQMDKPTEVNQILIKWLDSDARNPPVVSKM

[2] = AUC (0 to 24 hrs) in Sprague-Dawley rat at 5 mg/kg, po by LC/MS/MS analysis; format: ADME, organism-based; set-up: time < 24 hr, dose 5 mg/kg, route oral; settings: plasma
[3] = Cmax in Sprague-Dawley rat at 5 mg/kg, po by LC/MS/MS analysis; format: ADME, organism-based; set-up: dose 5 mg/kg, route oral; settings: in vivo

| SMILES | IC50 [1] | AUC(0-t) at 24 h [2] | Cmax [3] |
| --- | --- | --- | --- |
| O=C(Nc1ccc(C(F)(F)F)cc1)Nc1cccc(OCCCN2CCOCC2)c1 | 1 nM | 8 ng·h/mL | 5 ng/mL |
| O=C(Nc1ccc(OC(F)(F)F)cc1)Nc1cccc(OCCCN2CCOCC2)c1 | 8 nM |  |  |
| O=C(Nc1cccc(OCCCN2CCOCC2)c1)NC1CCCCC1 |  | 131 ng·h/mL | 102 ng/mL |
| O=C(Nc1ccccc1)Nc1cccc(OCCCN2CCOCC2)c1 | 38 nM | 3570 ng·h/mL | 1570 ng/mL |
| O=C(CC12CC3CC(CC(C3)C1)C2)Nc1ccc(OCCCN2CCOCC2)cc1 | 1.3 nM |  |  |
| O=C(Nc1ccc(F)c(OCCCN2CCOCC2)c1)NC1CCCCC1 | 6.5 nM |  |  |
| O=C(Cc1ccc2c(c1)OCO2)Nc1cccc(OCCCN2CCOCC2)c1 | 365 nM |  |  |
| CN(C)c1cccc(NC(=O)Nc2cccc(OCCCN3CCOCC3)c2)c1 | 240 nM |  |  |
| O=C(Nc1ccc(Cl)cc1)Nc1ccc(F)c(OCCCN2CCOCC2)c1 | 4.8 nM |  |  |
| O=C(Cc1ccc(F)c(F)c1)Nc1cccc(OCCCN2CCOCC2)c1 | 321 nM |  |  |
| CC(C)(C)NC(=O)Nc1cccc(OCCCN2CCOCC2)c1 | 1040 nM |  |  |
| O=C(Nc1ccc(Cl)cc1)Nc1ccc(OCCCN2CCOCC2)cc1 | 1.5 nM |  |  |
| O=C(Nc1ccc(F)cc1)Nc1cccc(OCCCN2CCOCC2)c1 | 14 nM | 491 ng·h/mL | 123 ng/mL |
| O=C(Cc1cccnc1)Nc1cccc(OCCCN2CCOCC2)c1 | 14000 nM |  |  |
| O=C(Nc1ccc(OCCCN2CCOCC2)cc1)Nc1ccc(OC(F)(F)F)cc1 | 0.8 nM |  |  |
| O=C(Nc1ccc(F)cc1)Nc1ccc(F)c(OCCCN2CCOCC2)c1 | 40 nM |  |  |
| O=C(CC12CC3CC(CC(C3)C1)C2)Nc1ccc(F)c(OCCCN2CCOCC2)c1 | 6.6 nM |  |  |
| CC(C)(C)CC(=O)Nc1cccc(OCCCN2CCOCC2)c1 | 1550 nM |  |  |
| O=C(Cc1ccccc1)Nc1ccc(OCCCN2CCOCC2)cc1 | 870 nM |  |  |
| O=C(Cc1ccc(C(F)(F)F)cc1)Nc1ccc(OCCCN2CCOCC2)cc1 | 54 nM |  |  |
| O=C(Cc1ccc(OC(F)(F)F)cc1)Nc1ccc(OCCCN2CCOCC2)cc1 | 42 nM |  |  |
| O=C(Cc1ccc(Cl)cc1)Nc1cccc(OCCCN2CCOCC2)c1 | 116 nM |  |  |

| SMILES | IC50 [1] | AUC(0-t) at 24 h [2] | Cmax [3] |
| --- | --- | --- | --- |
| O=C(Nc1ccccc1)Nc1ccc(F)c(OCCCN2CCOCC2)c1 | 81 nM |  |  |
| O=C(Nc1cccc(OCCCN2CCOCC2)c1)Nc1cccc(C(F)(F)F)c1 | 13.8 nM |  |  |
| O=C(Nc1cccc(OCCCN2CCOCC2)c1)Nc1ccc2c(c1)OCO2 | 33 nM | 753 ng·h/mL | 218 ng/mL |
| O=C(Cc1ccc(Cl)cc1)Nc1ccc(OCCCN2CCOCC2)cc1 | 140 nM |  |  |
| O=C(Nc1cccc(OCCCN2CCOCC2)c1)Nc1c(F)cc(F)cc1F | 1880 nM |  |  |
| O=C(Nc1ccc(F)c(OCCCN2CCOCC2)c1)NC12CC3CC(CC(C3)C1)C2 | 0.8 nM |  |  |
| O=C(Nc1ccc(C(F)(F)F)cc1)Nc1ccc(F)c(OCCCN2CCOCC2)c1 | 1.3 nM |  |  |
| O=C(Nc1cccnc1)Nc1cccc(OCCCN2CCOCC2)c1 | 5000 nM |  |  |
| O=C(Nc1ccc(OC(F)(F)F)cc1)Nc1ccc(F)c(OCCCN2CCOCC2)c1 | 0.8 nM |  |  |
| O=C(Nc1ccccc1)Nc1ccc(OCCCN2CCOCC2)cc1 | 39 nM |  |  |
| O=C(Nc1ccc(OCCCN2CCOCC2)cc1)Nc1ccc(C(F)(F)F)cc1 | 0.8 nM | 1050 ng·h/mL | 263 ng/mL |
| O=C(Nc1cccc(OCCCN2CCOCC2)c1)Nc1ccc(F)c(F)c1 | 11 nM | 3 ng·h/mL | 3 ng/mL |
| O=C(Cc1ccc(OC(F)(F)F)cc1)Nc1cccc(OCCCN2CCOCC2)c1 | 43 nM |  |  |
| O=C(Cc1ccc(OC(F)(F)F)cc1)Nc1ccc(F)c(OCCCN2CCOCC2)c1 | 145 nM |  |  |
| O=C(CC12CC3CC(CC(C3)C1)C2)NC1CCCC(OCCCN2CCOCC2)C1 (stereo not drawn) | 5.2 nM |  |  |
| O=C(NC1CCCC(OCCCN2CCOCC2)C1)NC12CC3CC(CC(C3)C1)C2 (stereo not drawn) | 2.5 nM |  |  |
| O=C(Nc1cccc(OCCCN2CCOCC2)c1)Nc1c(Cl)cccc1Cl | 10000 nM |  |  |
| O=C(Cc1ccc(F)cc1)Nc1cccc(OCCCN2CCOCC2)c1 | 550 nM | 57 ng·h/mL | 48 ng/mL |
| O=C(Nc1ccc(Cl)cc1)Nc1cccc(OCCCN2CCOCC2)c1 | 2 nM | 9 ng·h/mL | 6 ng/mL |
| O=C(Cc1ccc(C(F)(F)F)cc1)Nc1ccc(F)c(OCCCN2CCOCC2)c1 | 156 nM |  |  |
| O=C(Nc1cccc(OCCCN2CCOCC2)c1)Nc1ccc(F)cc1F | 121 nM |  |  |
| O=C(Nc1ccc(OCCCN2CCOCC2)cc1)NC1CCCCC1 | 5.4 nM | 863 ng·h/mL | 669 ng/mL |
